Laboratory results published in ChEMBL document CHEMBL1131313, “1-[omega-(4-arylpiperazin-1-yl)alkyl]-3-diphenylmethylene-2,5- pyrrolidinediones as 5-HT1A receptor ligands: study of the steric requirements of the terminal amide fragment on 5-HT1A affinity/selectivity” (Bioorg Med Chem Lett, 1998).

Legend:
[1] = molecular target: T1, Adrenergic receptor alpha-1 (Rattus norvegicus, UniProt P15823+P23944+P43140); test: In vitro binding affinity against Alpha-1 adrenergic receptor in rat cerebral cortex membrane using [3H]prazosin as radioligand; format: cell membranes
T1 sequence (P15823 whole entry): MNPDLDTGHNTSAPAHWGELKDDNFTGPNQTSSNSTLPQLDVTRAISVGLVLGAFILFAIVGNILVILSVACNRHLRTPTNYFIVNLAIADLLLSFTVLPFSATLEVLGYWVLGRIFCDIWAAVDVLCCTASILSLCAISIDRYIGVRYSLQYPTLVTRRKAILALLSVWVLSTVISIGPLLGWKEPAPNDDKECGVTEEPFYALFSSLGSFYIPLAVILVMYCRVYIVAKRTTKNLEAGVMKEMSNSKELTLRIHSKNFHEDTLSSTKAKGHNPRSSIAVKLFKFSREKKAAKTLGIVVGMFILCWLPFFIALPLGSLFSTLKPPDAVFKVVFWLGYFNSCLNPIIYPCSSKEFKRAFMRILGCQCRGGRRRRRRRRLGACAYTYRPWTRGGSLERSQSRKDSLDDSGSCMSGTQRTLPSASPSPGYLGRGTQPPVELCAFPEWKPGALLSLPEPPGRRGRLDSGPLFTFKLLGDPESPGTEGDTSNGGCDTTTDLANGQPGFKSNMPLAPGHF
T1 sequence (P23944 whole entry): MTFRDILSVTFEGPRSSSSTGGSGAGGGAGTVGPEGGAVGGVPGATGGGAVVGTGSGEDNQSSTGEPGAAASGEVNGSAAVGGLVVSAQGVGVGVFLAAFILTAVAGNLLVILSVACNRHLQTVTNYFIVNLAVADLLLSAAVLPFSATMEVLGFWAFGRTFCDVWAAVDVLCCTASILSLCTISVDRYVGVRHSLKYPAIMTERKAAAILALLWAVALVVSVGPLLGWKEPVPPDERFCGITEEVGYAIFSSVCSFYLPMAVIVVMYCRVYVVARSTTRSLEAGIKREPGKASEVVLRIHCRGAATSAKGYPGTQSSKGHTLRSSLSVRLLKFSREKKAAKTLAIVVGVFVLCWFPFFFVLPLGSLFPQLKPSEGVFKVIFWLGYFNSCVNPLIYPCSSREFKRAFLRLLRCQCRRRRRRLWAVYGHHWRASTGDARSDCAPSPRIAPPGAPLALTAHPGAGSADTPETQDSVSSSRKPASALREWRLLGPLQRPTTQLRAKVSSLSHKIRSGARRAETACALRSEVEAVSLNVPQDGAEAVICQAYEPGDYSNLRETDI
T1 sequence (P43140 whole entry): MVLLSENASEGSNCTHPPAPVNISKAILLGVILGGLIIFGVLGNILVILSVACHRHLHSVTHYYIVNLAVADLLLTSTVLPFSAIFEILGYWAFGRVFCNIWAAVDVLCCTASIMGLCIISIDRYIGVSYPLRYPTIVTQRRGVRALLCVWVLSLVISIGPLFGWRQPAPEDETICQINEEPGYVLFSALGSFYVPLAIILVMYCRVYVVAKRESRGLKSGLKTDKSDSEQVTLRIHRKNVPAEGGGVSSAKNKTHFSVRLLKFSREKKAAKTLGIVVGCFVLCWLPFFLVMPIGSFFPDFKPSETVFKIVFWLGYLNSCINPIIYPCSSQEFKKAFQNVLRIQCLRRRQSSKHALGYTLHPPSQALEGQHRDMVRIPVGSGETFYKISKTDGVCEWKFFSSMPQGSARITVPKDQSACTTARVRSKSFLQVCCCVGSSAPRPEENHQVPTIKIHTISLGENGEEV

[2] = molecular target: D(2) dopamine receptor (Rattus norvegicus, UniProt P61169); test: In vitro binding affinity against Dopamine receptor D2 in rat striatum membrane using [3H]raclopride as radioligand; format: cell membranes
[3] = molecular target: T2, 5-hydroxytryptamine receptor 1A (Rattus norvegicus, UniProt P19327); test: In vitro binding affinity against serotonin 5-HT1A receptor in rat cerebral cortex membrane using [3H]8-OH-DPAT as radioligand; format: cell membranes
T2 sequence (P19327 whole entry): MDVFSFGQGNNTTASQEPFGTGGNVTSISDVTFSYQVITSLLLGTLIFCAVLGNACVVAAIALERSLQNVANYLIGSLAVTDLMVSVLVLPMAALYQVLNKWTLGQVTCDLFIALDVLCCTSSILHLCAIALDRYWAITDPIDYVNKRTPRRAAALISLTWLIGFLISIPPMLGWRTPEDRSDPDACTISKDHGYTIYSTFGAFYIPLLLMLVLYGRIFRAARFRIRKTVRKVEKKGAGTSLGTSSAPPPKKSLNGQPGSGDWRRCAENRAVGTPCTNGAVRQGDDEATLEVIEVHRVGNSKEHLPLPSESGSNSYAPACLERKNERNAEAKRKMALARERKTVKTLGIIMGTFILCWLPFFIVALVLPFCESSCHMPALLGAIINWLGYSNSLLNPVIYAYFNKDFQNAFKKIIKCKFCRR

[4] = molecular target: T1, Adrenergic receptor alpha-1; test: Antagonistic activity (pA2) at Alpha-1 adrenergic receptor in ring segments of rat thoracic aorta contracted by phenylephrine; format: functional, tissue-based
[5] = organism: Rattus norvegicus; test: Compound was evaluated for its ability to affect adenylyl cyclase activity in rat hippocampus slice preparation; agonist; format: functional; conditions: filed as agonist

D(2) dopamine receptor, sequence (P61169 whole entry): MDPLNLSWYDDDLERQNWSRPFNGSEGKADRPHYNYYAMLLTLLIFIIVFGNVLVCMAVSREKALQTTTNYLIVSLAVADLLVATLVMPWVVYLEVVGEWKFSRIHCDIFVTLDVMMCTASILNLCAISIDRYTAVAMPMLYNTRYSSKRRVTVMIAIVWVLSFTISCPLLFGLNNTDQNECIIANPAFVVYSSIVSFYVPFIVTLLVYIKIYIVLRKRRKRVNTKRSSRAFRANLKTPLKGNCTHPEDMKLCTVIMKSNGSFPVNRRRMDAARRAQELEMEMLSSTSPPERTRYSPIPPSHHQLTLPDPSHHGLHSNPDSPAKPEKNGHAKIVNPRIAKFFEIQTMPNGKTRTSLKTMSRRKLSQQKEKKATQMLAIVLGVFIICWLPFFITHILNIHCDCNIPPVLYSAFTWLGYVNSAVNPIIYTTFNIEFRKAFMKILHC

| Ki [1] | Ki [2] | Ki [3] | Activity [5] | SMILES | pA2 [4] |
| --- | --- | --- | --- | --- | --- |
| 60.5 nM | 689 nM | 15.8 nM |  | O=C1CC(=C(c2ccccc2)c2ccccc2)C(=O)N1CCCCN1CCN(c2cccc(C(F)(F)F)c2)CC1 |  |
| 71.5 nM | 167 nM | 286 nM |  | COc1ccccc1N1CCN(CCN2C(=O)CC(=C(c3ccccc3)c3ccccc3)C2=O)CC1 |  |
| 6.4 nM | > 1000 nM | 125 nM |  | O=C1CC(=C(c2ccccc2)c2ccccc2)C(=O)N1CCCCN1CCN(c2ccccc2)CC1 |  |
| 392 nM | > 1000 nM | 49.4 nM |  | O=C1CC(=C(c2ccccc2)c2ccccc2)C(=O)N1CN1CCN(c2cccc(Cl)c2)CC1 |  |
| > 1000 nM | > 1000 nM | 98 nM |  | O=C1CC(=C(c2ccccc2)c2ccccc2)C(=O)N1CN1CCN(c2ccccc2)CC1 |  |
| 16.4 nM | 367 nM | 39.3 nM |  | O=C1CC(=C(c2ccccc2)c2ccccc2)C(=O)N1CCCCN1CCN(c2cccc(Cl)c2)CC1 |  |
| 8.1 nM | 156 nM | 665 nM |  | COc1ccccc1N1CCN(CCCN2C(=O)CC(=C(c3ccccc3)c3ccccc3)C2=O)CC1 |  |
| > 1000 nM | > 1000 nM | > 1000 nM |  | O=C1CC(=C(c2ccccc2)c2ccccc2)C(=O)N1CCN1CCN(c2cccc(Cl)c2)CC1 |  |
| 51.8 nM | 351 nM | 3.3 nM | Agonist | O=C1CC(=C(c2ccccc2)c2ccccc2)C(=O)N1CCCCN1CCN(c2ccc(F)cc2)CC1 |  |
| > 1000 nM | > 1000 nM | 59.6 nM | Agonist | O=C1CC(=C(c2ccccc2)c2ccccc2)C(=O)N1CN1CCN(c2cccc(C(F)(F)F)c2)CC1 |  |
| 39.2 nM | 801 nM | 127 nM |  | O=C1CC(=C(c2ccccc2)c2ccccc2)C(=O)N1CCCN1CCN(c2cccc(Cl)c2)CC1 |  |
| 14.4 nM | > 1000 nM | 13.4 nM |  | COc1ccccc1N1CCN(CCCCN2C(=O)CC(=C(c3ccccc3)c3ccccc3)C2=O)CC1 |  |

Further lines, the molecule ahead of its results:

| SMILES | Ki [1] | Ki [2] | Ki [3] | Activity [5] | pA2 [4] |
| --- | --- | --- | --- | --- | --- |
| O=C1CC(=C(c2ccccc2)c2ccccc2)C(=O)N1CCN1CCN(c2cccc(C(F)(F)F)c2)CC1 | > 1000 nM | > 1000 nM | > 1000 nM |  |  |
| O=C1CC(=C(c2ccccc2)c2ccccc2)C(=O)N1CCCN1CCN(c2ccccc2)CC1 | 5.7 nM | > 1000 nM | > 1000 nM |  | 7.79 |
| O=C1CC(=C(c2ccccc2)c2ccccc2)C(=O)N1CN1CCN(c2ccc(F)cc2)CC1 | 746 nM | > 1000 nM | > 1000 nM |  |  |
| O=C1CC(=C(c2ccccc2)c2ccccc2)C(=O)N1CCCN1CCN(c2cccc(C(F)(F)F)c2)CC1 | 62.7 nM | > 1000 nM | > 1000 nM |  |  |
| O=C1CC(=C(c2ccccc2)c2ccccc2)C(=O)N1CCCN1CCN(c2ccc(F)cc2)CC1 | 8.3 nM | > 1000 nM | > 1000 nM |  | 8.63 |
| O=C1CC(=C(c2ccccc2)c2ccccc2)C(=O)N1CCN1CCN(c2ccc(F)cc2)CC1 | 529 nM | > 1000 nM | > 1000 nM |  |  |
| O=C1CC(=C(c2ccccc2)c2ccccc2)C(=O)N1CCN1CCN(c2ccccc2)CC1 | 214 nM | > 1000 nM | > 1000 nM |  |  |
| COc1ccccc1N1CCN(CN2C(=O)CC(=C(c3ccccc3)c3ccccc3)C2=O)CC1 | > 1000 nM | > 1000 nM | 93.8 nM |  |  |
